Experimental data as given in PubChem BioAssay (NCI).
Where “and” joins values, the source holds several entries; their conditions need not be identical. Identical values can stand only once.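 Cultured in 96-well plates, cells were exposed to test compound for 48 hours across five concentrations. Abbreviation: GI50, concentration required for 50% inhibition of growth. The concentration for full growth arrest is given as TGI.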

Assays:
Test in all cases: NCI anticancer screen, dose series, 48 h
K-562 leukemia = tested on: K-562 leukemia
HOP-92 NSCLC = tested on: HOP-92 NSCLC
CAKI-1 renal = tested on: CAKI-1 renal
HT29 colon = tested on: HT29 colon
SN12C renal = tested on: SN12C renal
MOLT-4 leukemia = tested on: MOLT-4 leukemia
RXF 393 renal = tested on: RXF 393 renal
NCI-H522 lung = tested on: NCI-H522 lung
SK-MEL-2 melanoma = tested on: SK-MEL-2 melanoma
SR leukemia = tested on: SR leukemia

## O=C(Oc1cccnc1)c1ccccc1Nc1ccnc(C(F)(F)F)c1
K-562 leukemia
  GI50: 0.0426 µM
  TGI: > 100 µM
HOP-92 NSCLC
  GI50: 6.64 µM
  TGI: > 100 µM
CAKI-1 renal
  GI50: 0.0525 µM
  TGI: 46.9 µM
HT29 colon
  GI50: 0.0487 µM
SN12C renal
  GI50: 0.17 µM
  TGI: > 94.8 µM
MOLT-4 leukemia
  GI50: 0.0499 µM
  TGI: > 100 µM
RXF 393 renal
  GI50: 0.473 µM
  TGI: 13.5 µM
NCI-H522 lung
  GI50: 0.402 µM
  TGI: > 100 µM
SK-MEL-2 melanoma
  GI50: 20.2 µM
  TGI: > 100 µM

## N=C(N)n1ncc(Cl)c(Cl)c1=O
K-562 leukemia
  TGI: 6.36 µM
HOP-92 NSCLC
  TGI: 4.42 µM
CAKI-1 renal
  TGI: 3.31 µM
SN12C renal
  TGI: 8.44 µM
MOLT-4 leukemia
  TGI: 4.64 µM
NCI-H522 lung
  TGI: 3.43 µM
SK-MEL-2 melanoma
  TGI: 6.93 µM

## CC(=O)OC1(C#N)CC2OC1C1C2N1C(=O)c1ccccc1 (stereo not drawn)
K-562 leukemia
  TGI: > 100 µM
HOP-92 NSCLC
  TGI: > 100 µM
CAKI-1 renal
  TGI: > 100 µM
SN12C renal
  TGI: > 100 µM
MOLT-4 leukemia
  TGI: > 100 µM
RXF 393 renal
  TGI: > 100 µM
NCI-H522 lung
  TGI: > 100 µM
SK-MEL-2 melanoma
  TGI: > 100 µM

## COC(=O)CCC(NC(=S)N/N=C(\C)c1ccccn1)C(=O)OC (stereo not drawn)
K-562 leukemia
  TGI: > 100 µM
HOP-92 NSCLC
  TGI: > 100 µM
HT29 colon
  TGI: > 100 µM
SN12C renal
  TGI: > 100 µM
MOLT-4 leukemia
  TGI: > 100 µM
RXF 393 renal
  TGI: > 100 µM
NCI-H522 lung
  TGI: > 100 µM
SK-MEL-2 melanoma
  TGI: > 100 µM

## CCOC(=O)CC(=O)ON(C)C(=O)Cc1ccccc1
SR leukemia
  TGI: > 100 µM
CAKI-1 renal
  TGI: > 100 µM
HT29 colon
  TGI: > 100 µM
SN12C renal
  TGI: > 100 µM
NCI-H522 lung
  TGI: > 100 µM
SK-MEL-2 melanoma
  TGI: > 100 µM

## CCOC(=O)C1=C(Nc2ccccc2)OC/C1=N\NC(=O)Cc1ccccc1
K-562 leukemia
  TGI: > 50 µM
HOP-92 NSCLC
  TGI: > 50 µM
CAKI-1 renal
  TGI: > 50 µM
HT29 colon
  TGI: > 50 µM
SN12C renal
  TGI: > 50 µM
MOLT-4 leukemia
  TGI: > 50 µM
RXF 393 renal
  TGI: > 50 µM
NCI-H522 lung
  TGI: > 50 µM
SK-MEL-2 melanoma
  TGI: > 50 µM

## c1cncc(CNc2ccccc2-c2nnc(Nc3ccc4c(c3)OCO4)o2)c1
K-562 leukemia
  GI50: 0.0474 µM
  TGI: > 100 µM
HOP-92 NSCLC
  GI50: 0.0904 µM
  TGI: 28.9 µM
SR leukemia
  GI50: 0.0361 µM
  TGI: > 100 µM
CAKI-1 renal
  GI50: 0.0551 µM
  TGI: > 100 µM
HT29 colon
  GI50: 0.037 µM
  TGI: 1.27 µM
SN12C renal
  GI50: 0.0994 µM
  TGI: > 100 µM
MOLT-4 leukemia
  GI50: 0.194 µM
  TGI: > 100 µM
NCI-H522 lung
  GI50: 0.0247 µM
  TGI: 0.0709 µM
SK-MEL-2 melanoma
  GI50: 0.052 µM
  TGI: 91.9 µM

## O=C(NCCCN1CCN(CCCNC(=O)c2cnc3ccccc3n2)CC1)c1cnc2ccccc2n1
K-562 leukemia
  TGI: > 100 µM
CAKI-1 renal
  TGI: > 100 µM
HT29 colon
  TGI: > 100 µM
SN12C renal
  TGI: > 100 µM
MOLT-4 leukemia
  TGI: > 100 µM
RXF 393 renal
  TGI: > 100 µM
NCI-H522 lung
  TGI: > 100 µM
SK-MEL-2 melanoma
  TGI: > 100 µM

## COc1cc2c(cc1OCCCCNC(=O)c1cc3ccccc3[nH]1)N=CC1CCCN1C2=O (stereo not drawn)
K-562 leukemia
  GI50: 8.35 µM
  TGI: > 100 µM
HOP-92 NSCLC
  GI50: 12.2 µM
  TGI: 75.4 µM
SR leukemia
  GI50: > 100 µM
  TGI: > 100 µM
HT29 colon
  GI50: 32.6 µM
  TGI: > 100 µM
SN12C renal
  GI50: 18.9 µM
  TGI: 44.8 µM
MOLT-4 leukemia
  GI50: 8.72 µM
  TGI: > 100 µM
RXF 393 renal
  GI50: 2.35 µM
  TGI: 6.28 µM
NCI-H522 lung
  GI50: 4.43 µM
  TGI: 79.9 µM

## Nc1nc(N)c2cc(CNc3ccc(Cl)c(Cl)c3)ccc2n1
K-562 leukemia
  GI50: 0.0588 µM
  TGI: 1.45 µM
SR leukemia
  GI50: 0.445 µM
  TGI: 1.93 µM
CAKI-1 renal
  GI50: 1.22 µM
  TGI: 2.54 µM
HT29 colon
  GI50: 0.287 µM
  TGI: 1.65 µM
SN12C renal
  GI50: 0.732 µM
  TGI: 2.12 µM
MOLT-4 leukemia
  GI50: 0.485 µM
  TGI: 2.02 µM
RXF 393 renal
  GI50: 0.748 µM
  TGI: 2.18 µM
NCI-H522 lung
  GI50: 0.567 µM
  TGI: 2.01 µM
SK-MEL-2 melanoma
  GI50: 1.52 µM
  TGI: 3.01 µM

## N/C(=N\O)c1ncc(-c2ccc(C(F)(F)F)cc2)c(NC2CCCCCC2)n1
K-562 leukemia
  GI50: 4.36 µM and 1.71 µM
  TGI: 11.8 µM
SR leukemia
  GI50: 4.49 µM and 1.52 µM
  TGI: 6.68 µM
CAKI-1 renal
  GI50: 5.71 µM and 1.69 µM
  TGI: 8.1 µM
HT29 colon
  GI50: 3.24 µM
  TGI: 10.4 µM
SN12C renal
  GI50: 5.79 µM and 3.05 µM
  TGI: 14.5 µM
MOLT-4 leukemia
  GI50: 5.44 µM and 1.9 µM
  TGI: 5.78 µM
RXF 393 renal
  GI50: 2.74 µM
  TGI: 11.6 µM
NCI-H522 lung
  GI50: 1.92 µM
  TGI: 7.69 µM

## C/C(=N\NC(=O)CC(=O)Nc1ccc(C)cc1)c1cc2ccccc2oc1=O
K-562 leukemia
  TGI: > 100 µM
HT29 colon
  TGI: > 100 µM
SN12C renal
  TGI: > 100 µM
MOLT-4 leukemia
  TGI: > 100 µM
RXF 393 renal
  TGI: > 100 µM
NCI-H522 lung
  TGI: > 100 µM
SK-MEL-2 melanoma
  TGI: > 100 µM

## Cc1ccc(-n2c3c(c4c(CN5CCCCC5)c(O)ccc42)CCc2ccccc2C3=O)cc1
K-562 leukemia
  GI50: 32.2 µM
  TGI: > 100 µM
HOP-92 NSCLC
  GI50: 20 µM
  TGI: 88.2 µM
CAKI-1 renal
  GI50: > 100 µM
  TGI: > 100 µM
SN12C renal
  GI50: > 100 µM
  TGI: > 100 µM
MOLT-4 leukemia
  GI50: > 100 µM
  TGI: > 100 µM
RXF 393 renal
  GI50: 24.7 µM
  TGI: > 100 µM
NCI-H522 lung
  GI50: > 100 µM
  TGI: > 100 µM
SK-MEL-2 melanoma
  GI50: > 100 µM
  TGI: > 100 µM

## Cn1cc(-c2csc(-c3c[nH]c4ncccc34)n2)c2cc(Br)cnc21
K-562 leukemia
  GI50: 8.76 µM
  TGI: > 100 µM
HOP-92 NSCLC
  GI50: 5.03 µM
  TGI: > 100 µM
CAKI-1 renal
  GI50: 1.56 µM
  TGI: > 100 µM
HT29 colon
  GI50: 6.75 µM
  TGI: > 100 µM
MOLT-4 leukemia
  GI50: > 100 µM
  TGI: > 100 µM
RXF 393 renal
  GI50: 2.05 µM
  TGI: 8.63 µM
NCI-H522 lung
  GI50: 4.86 µM
  TGI: > 100 µM
SK-MEL-2 melanoma
  GI50: 19.8 µM
  TGI: 66.7 µM

## CC(C)c1cc(C(C)C)c(S(=O)(=O)NN)c(C(C)C)c1
K-562 leukemia
  TGI: > 100 µM
HOP-92 NSCLC
  TGI: > 100 µM
SR leukemia
  TGI: > 100 µM
CAKI-1 renal
  TGI: > 100 µM
HT29 colon
  TGI: > 100 µM
SN12C renal
  TGI: > 100 µM
RXF 393 renal
  TGI: > 100 µM
SK-MEL-2 melanoma
  TGI: > 100 µM

## COc1ccc(/C=C/c2cc(OC)c(O[Si](C)(C)C(C)(C)C)c(OC)c2)cc1
K-562 leukemia
  TGI: > 100 µM
HOP-92 NSCLC
  TGI: > 100 µM
CAKI-1 renal
  TGI: > 100 µM
HT29 colon
  TGI: > 100 µM
SN12C renal
  TGI: > 100 µM
MOLT-4 leukemia
  TGI: > 100 µM
NCI-H522 lung
  TGI: > 100 µM
SK-MEL-2 melanoma
  TGI: > 100 µM

## NC(=O)c1ccccc1NC(=O)C(=O)C(C(=O)c1ccc2ccccc2c1)C1OC(=O)c2ccccc21 (stereo not drawn)
K-562 leukemia
  TGI: 83.9 µM
HOP-92 NSCLC
  TGI: 32.3 µM
CAKI-1 renal
  TGI: 33 µM
HT29 colon
  TGI: 75.8 µM
SN12C renal
  TGI: 37.1 µM
MOLT-4 leukemia
  TGI: 23.7 µM
RXF 393 renal
  TGI: 16.8 µM
NCI-H522 lung
  TGI: 43.2 µM
SK-MEL-2 melanoma
  TGI: 33.2 µM

## Clc1ccc(-c2nc3c(-c4ccc(Cl)cc4)nc(-c4ccccc4)cn3c2-c2ccc(Cl)cc2)cc1
K-562 leukemia
  GI50: > 50 µM
  TGI: > 50 µM
HOP-92 NSCLC
  GI50: 14.9 µM
  TGI: 37.1 µM
CAKI-1 renal
  GI50: 27.8 µM
  TGI: > 50 µM
HT29 colon
  GI50: > 50 µM
  TGI: > 50 µM
SN12C renal
  GI50: > 50 µM
  TGI: > 50 µM
MOLT-4 leukemia
  GI50: > 50 µM
  TGI: > 50 µM
RXF 393 renal
  GI50: 11.1 µM
  TGI: 29 µM
NCI-H522 lung
  GI50: 44.7 µM
  TGI: > 50 µM
SK-MEL-2 melanoma
  GI50: 26 µM
  TGI: > 50 µM
